Target: T1, AR-F764L (Homo sapiens, UniProt P10275, F765L)
T1 construct: expressed in transfected cells
T1 sequence (P10275 1-920 F765L): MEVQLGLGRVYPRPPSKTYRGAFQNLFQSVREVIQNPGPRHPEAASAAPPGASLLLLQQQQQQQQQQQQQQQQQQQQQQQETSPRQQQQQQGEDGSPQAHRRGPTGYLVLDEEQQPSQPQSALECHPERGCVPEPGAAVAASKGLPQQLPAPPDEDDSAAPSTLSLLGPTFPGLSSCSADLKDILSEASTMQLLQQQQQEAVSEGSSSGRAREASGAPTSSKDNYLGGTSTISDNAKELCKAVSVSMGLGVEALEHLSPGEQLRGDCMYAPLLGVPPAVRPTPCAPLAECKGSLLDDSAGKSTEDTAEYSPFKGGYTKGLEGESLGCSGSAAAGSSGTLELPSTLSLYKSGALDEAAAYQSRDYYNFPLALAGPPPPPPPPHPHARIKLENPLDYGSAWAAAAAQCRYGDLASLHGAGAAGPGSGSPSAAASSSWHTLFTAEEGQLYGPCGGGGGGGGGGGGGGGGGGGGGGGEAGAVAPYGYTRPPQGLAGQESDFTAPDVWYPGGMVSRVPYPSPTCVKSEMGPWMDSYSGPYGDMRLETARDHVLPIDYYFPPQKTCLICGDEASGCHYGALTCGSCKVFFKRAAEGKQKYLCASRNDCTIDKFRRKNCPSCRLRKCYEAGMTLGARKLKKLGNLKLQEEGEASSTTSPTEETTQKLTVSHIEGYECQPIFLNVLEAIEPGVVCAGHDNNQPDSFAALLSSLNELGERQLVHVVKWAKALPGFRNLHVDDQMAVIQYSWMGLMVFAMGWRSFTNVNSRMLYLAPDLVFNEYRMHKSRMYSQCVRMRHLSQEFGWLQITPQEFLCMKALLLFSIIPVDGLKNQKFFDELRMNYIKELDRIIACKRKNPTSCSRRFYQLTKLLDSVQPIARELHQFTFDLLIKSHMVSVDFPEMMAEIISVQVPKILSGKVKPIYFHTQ
Type: cell-based
Experimental: To determine the global effect of the various AIS mutations on AR signaling, each was analyzed using HCA. This technology allows simultaneous quantification of AR protein expression, nuclear translocation, subnuclear patterning, and transcriptional activity. The analysis was done in HeLa cell lines stably transfected with wild type or mutant ARs fused with green fluorescent protein, or using AR immunofluorescence in primary cultures of genital skin fibroblasts generated from foreskin biopsies of historical AIS patients, or of normal neonates undergoing circumcision at birth. To prevent the effects of receptor over-expression, stable HeLa cells were carefully selected to express AR levels similar to LNCaP as previously described. Prior to ligand treatment, HeLa cells were transfected with the pARR2PB-dsRED2skl reporter plasmid, consisting of the AR responsive promoter ARR2PB [31] driving expression of the red fluorescent protein reporter dsRED2skl engineered to target peroxisomes.
For studies utilizing HeLa GFP-AR cell lines, twenty-four hours before transfection with pARR2PB-dsRED2skl, cells were plated onto 100 mm plastic dishes in medium supplemented with 5% charcoal-stripped and dialyzed-FBS. Transient introduction of the pARR-2PB-dsRED2skl reporter construct was performed using 6.0 µg reporter plasmid and 6.0 µg carrier DNA (BlueScript, Stratagene, San Diego, CA) using Transfectin (Biorad) following standard protocols. After 8-hour incubation, DNA/lipid complexes were removed. Cells were then trypsinized and replated at 10,000 cells per well in Nunc poly-D-lysine treated 96-well optical glass bottom plates and incubated an additional 12 hours to allow for cell adhesion. […] Compound dilutions and final addition to multi-well plates were performed using a Beckman Biomek NX robotic platform to ensure repeatability from experiment to experiment. After incubation was complete, using the Biomek NX robot, plates were washed with PBS and fixed for 20 min at RT in 4% formaldehyde prepared in CSK buffer (80 mM potassium PIPES, pH 6.8, 5 mM EGTA, 2 mM MgCl2). After fixation, cells were briefly permeabilized (5 min) with 0.5% Triton-X and prepared for imaging by washing in PBS, aspirating the washed solution, and adding a 1 ng/ml DAPI solution to stain DNA and a generic protein stain (CellMask, Invitrogen) to facilitate cell and nuclear image segmentation. Cells were imaged in PBS.
Cells were imaged using the Cell Lab IC-100 Image Cytometer (IC-100; Beckman Coulter) platform that consists of 1) Nikon Eclipse TE2000-U Inverted Microscope (Nikon; Melville, NY); 2) Chroma 82000 triple band filter set (Chroma; Brattleboro, VT); 3) an imaging camera: Hamamatsu ORCA-ER Digital CCD camera (Hamamatsu; Bridgewater, NJ); and 4) a focusing camera: Photonics COHU Progressive scan camera (Photonics; Oxford, MA). […] In general, 49 to 64 images were captured per well for image analysis.
While our initial AR studies using HTM were based upon CytoShop (Beckman-Coulter), [15], [33], these approaches were refined in the current work with the more robust server-client Pipeline Pilot image analysis platform (Basic and Advanced Imagine Collections, Pipeline Pilot 7.5, Accelrys, San Diego). Initially, the background signal was removed from all images using plate- and channel-specific correction images, generated by the sum projection of >600 randomly selected images for each channel from the image set. This allows for a pixel-by-pixel background subtraction that compensates any consistent uneven background artifacts in the image set. Furthermore, users are able to customize the degree of background subtraction by applying a multiplier to each correction image, useful for identification of objects such as nuclei or cell borders. After background subtraction, nuclear masks were generated using a combination of non-linear least squares and watershed-from-markers image manipulations of the DAPI images (Fig. 1B).

## C[C@@H]1CC2=CC(=O)CC[C@@H]2[C@H]2CC[C@@]3(C)[C@@H](CC[C@]3(C)O)[C@@H]21 [Mb, Mibolerone]
AR-F764L, discussion, test not specified
  recovery of AR-F764 activity, % of control: 45%
HeLa AR-F764L
  hyperspeckling response: 132 fold increase
  induction of transcriptional activity: 36 fold
HeLa AR-F764L, vs untreated
  increase in the percent of nuclear GFP signal: 31%
HeLa F764L, % signal present in the nucleus
  Nuclear Translocation, Max: 73.2±0.8%
HeLa F764L, absolute numerical measurement
  Hyperspeckling, Max: 965±8
HeLa F764L, pARR2PB-dsRED2skl reporter, absolute numerical measurement
  Transcriptional Activity, Max: 92.9±2.2

— article PMC2785468, “Androgen Receptor Mutations Associated with Androgen Insensitivity Syndrome: A High Content Analysis Approach Leading to Personalized Medicine” (PLoS ONE, 2009)
